Data set [1] deals with phosphodiesterase, olfactory mucosa. The data set can be described thus: PDE activity in homogenates of olfactory mucosa (turbinates). Particulars: for reduction of PDE activity / inhibition of cAMP hydrolysis / inhibition of cGMP hydrolysis: 10 μM drug; for inhibition of cAMP hydrolysis: 1 μM cAMP, no added Ca^2+. The data set is classed as biochemical, rat. How it is done:
(§1) Assays were performed with 100 μM Ca^2+ (hatched bars) or with 100 μM EGTA (solid bars).
(§2) Enzymol. […] Tissue was warmed to 37° C. and 100 μl aliquots containing 1-2 […] protein added to initiate the assay which was conducted for 20 minutes at 37° C. […] For experiments at 100 μM free Ca^2+, the reaction mix included 0.2 mM CaCl2 and 50 nM calmodulin (Sigma) where appropriate. Low Ca^2+ conditions were achieved by addition of 2.0 mM EGTA. Ca^2+ levels were measured against standards using a conductivity meter and Ca^2+ electrode (Biomedical Instrumentation Group, Philadelphia, Pa.). Following incubation, reactions were stopped by boiling for 1.5 minutes and cooling on ice, whereupon 100 μl aliquots of 5'-nucleotidase (10 units/ml in 0.1M Tris pH 8.1) were added and samples incubated for 30 minutes at 37° C. Incubation mixtures were applied to QAE-Sephadex columns pre-equilibrated with 30 mM ammonium formate, with flow through and eluate from two 1 ml washes collected in plastic scintillation vials.
Subcellular fractions were obtained as described below. Rats were anesthetized with carbon dioxide, decapitated and tissue dissected. Nasal turbinates were dissected intact and consisted of the entire olfactory mucosa, including endothelial tissue, olfactory epithelium, and overlying mucous. […] For fractionation, tissue was first centrifuged at 500×g for 5 minutes in a Sorvall RC 2B superspeed refrigerated centrifuge (DuPont, Wilmington, Del.). The crude particulate (P1) pellet was discarded and the supernatant (S1) centrifuged 20 minutes at 28,000×g. The resultant pellet (P2) was washed in BHB, centrifuged and resuspended in 5 ml BHB, and designated the membrane fraction. The supernatant (S2) was centrifuged 50 minutes at 230,000×g in Beckman L8-M ultracentrifuge (Fullerton, Calif.). The pellet (P3) was washed in BHB, recentrifuged in an ultracentrifuge, and resuspended in 2 ml BHB as the microsomal fraction. The supernatant (S3) was saved as the soluble fraction and visually inspected for absence of cloudiness or lipid droplets. In all cases, protein was assayed by the Bradford method using Coomassie Protein Assay Reagent (Pierce, Rockford, Ill.) and BSA as standard.

Data set [2] concerns the target T1, phosphodiesterase, olfactory cilia (Rattus norvegicus, UniProt Q63421).
T1 construct: Tissue was prepared either as cilia, using the method of Sklar et al., (1986); from tissue; host or cells: olfactory cilia preparation
Put plainly: PDE activity in olfactory cilia. The class given is biochemical. How it is done: as §1
(§3) Activity is graphed as a function of total cyclic nucleotides present using olfactory cilia, or mucosa with 1 μM cGMP.
(§4) FIG 4B is a graph of activity, 1 μM cGMP used as substrate: 100 μM EGTA (open circles); 100 μM Ca^2+ (filled circles); 100 μM Ca^2+ in the presence of 200 μM W-7 (filled squares).
as §2

For the next data set, the system named is cGMP-inhibited PDE. Particulars: reported in literature; cited from earlier work.
Data set [3] relates to high affinity cAMP-selective form of PDE. Particulars: reported in literature, cited from earlier work.
In data set [4] the target is T1, phosphodiesterase, olfactory cilia. The data set can be described thus: PDE activity in olfactory cilia. The data set is classed as biochemical. The source holds these as a separate data set.
Data set [5] relates to phosphodiesterase, olfactory cilia. The data set can be described thus: PDE activity in olfactory cilia. The data set is classed as biochemical, rat. How it is done: as §1, §3, §4, §2
Where [6] appears, read: olfactory mucosa, 1 μM cGMP, 100 μM EGTA.
[7] abbreviates: 10 μM drug, presence or absence of Ca^2+.

“Also recorded” adds a separate entry of the source. Like-named read-outs stand apart in the source and are kept apart here.

By inhibition is commonly meant the change of the read-out against control, counted positive when it falls.

T1 sequence (Q63421 whole entry): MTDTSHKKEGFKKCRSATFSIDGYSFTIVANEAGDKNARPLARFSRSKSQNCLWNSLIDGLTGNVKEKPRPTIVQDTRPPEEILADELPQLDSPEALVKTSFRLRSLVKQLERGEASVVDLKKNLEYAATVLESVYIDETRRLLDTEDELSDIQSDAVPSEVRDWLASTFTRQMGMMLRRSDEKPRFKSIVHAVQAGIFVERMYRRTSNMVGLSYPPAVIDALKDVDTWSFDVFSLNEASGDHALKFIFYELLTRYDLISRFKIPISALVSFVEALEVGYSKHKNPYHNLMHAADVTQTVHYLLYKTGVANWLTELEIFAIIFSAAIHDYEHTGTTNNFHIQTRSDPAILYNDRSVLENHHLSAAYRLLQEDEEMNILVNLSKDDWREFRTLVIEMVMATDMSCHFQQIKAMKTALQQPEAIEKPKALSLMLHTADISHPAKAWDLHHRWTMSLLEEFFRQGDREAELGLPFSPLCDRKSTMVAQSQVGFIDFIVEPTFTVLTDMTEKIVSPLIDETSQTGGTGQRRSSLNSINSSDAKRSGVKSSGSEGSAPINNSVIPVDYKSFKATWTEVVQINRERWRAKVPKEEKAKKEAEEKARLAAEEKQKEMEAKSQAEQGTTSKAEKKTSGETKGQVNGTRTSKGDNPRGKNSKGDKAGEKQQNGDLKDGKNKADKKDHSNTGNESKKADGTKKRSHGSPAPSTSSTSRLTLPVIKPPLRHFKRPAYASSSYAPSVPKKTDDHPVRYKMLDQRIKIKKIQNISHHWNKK

As for `CC1CC(=O)NN=C1c1ccc(-n2ccnc2)cc1` (stereo not drawn) [CI 930], the “reduction of PDE activity” value in data set [1] (100 μM Ca^2+) is listed as “about 15%”; in data set [1] (100 μM EGTA) it was “about 30%”. For the same molecule, in data set [2] (10 μM drug, regardless of assay conditions, read-out: inhibition of PDE in cilia), the inhibition at 10 µM is < 10%. In addition, the “selectivity for cGMP-inhibited PDE” value with cGMP-inhibited PDE is recorded as “selective for cGMP-inhibited PDE”.

As for `CCCCOc1cc(CC2CNC(=O)N2)ccc1OC` (stereo not drawn) [Ro20-1724], the “inhibition of olfactory PDE in the presence of calcium” value in data set [1] (olfactory PDE, presence of calcium) is “about 15%”. In addition, the “inhibition of cAMP hydrolysis” value in data set [1] (olfactory mucosa, 100 μM EGTA) was 66%. The “inhibition of cGMP hydrolysis” value in data set [1] (setting [6]) is “Neither 10 μM rolipram nor 10 μM Ro20-1724 inhibit cGMP hydrolysis”. Besides, in data set [2] (setting [7]), the “inhibition of PDE in cilia” value was “neither rolipram (10 μM) nor Ro20-1724 (10 μM) inhibit PDE”. Moreover, the “selective inhibition of the high affinity cAMP-selective form of PDE” value (from here on “selective inhibition”) in data set [3] is recorded as “selectively inhibit the high affinity cAMP-selective form of PDE”; in data set [3] (listed as Ro 20-1724) it was “selective inhibitor of calcium/calmodulin-independent, high affinity PDE”.

Turning to `CCCCn1c(=O)c2c(ncn2CC(C)=O)n(CCCC)c1=O` [denbufylline], the “inhibition of cAMP hydrolysis” value in data set [1] (olfactory mucosa, 100 μM EGTA) is recorded as 64%. Also, the “inhibition of cGMP hydrolysis” value in data set [1] (setting [6]) is reported as “about 20%”. Moreover, the inhibition at 10 µM in data set [2] (10 μM drug, 1 μM cGMP, presence or absence of Ca^2+, read-out: inhibition of ciliary cGMP PDE) is 15 to 20%; in data set [4] (read-out: inhibition of ciliary cAMP PDE), 15 to 20%. In addition, the “selective inhibition” value in data set [3] is recorded as “selectively inhibit the high affinity cAMP-selective form of PDE”.

For `COc1ccc(C2CNC(=O)C2)cc1OC1CCCC1` (stereo not drawn) [rolipram], in data set [1] (olfactory mucosa, 100 μM EGTA), the “inhibition of cAMP hydrolysis” value was 49%. Moreover, the “inhibition of cGMP hydrolysis” value in data set [1] (setting [6]) is listed as “Neither 10 μM rolipram nor 10 μM Ro20-1724 inhibit cGMP hydrolysis”. Besides, the “inhibition of PDE in cilia” value in data set [2] (setting [7]) is recorded as “neither rolipram (10 μM) nor Ro20-1724 (10 μM) inhibit PDE”. Further, in data set [3], the “selective inhibition” value is “selectively inhibited; also recorded: selectively inhibit the high affinity cAMP-selective form of PDE”.

For `Nc1nc2c(ncn2[C@@H]2O[C@@H]3COP(=O)(O)O[C@H]3[C@H]2O)c(=O)[nH]1` [cGMP], the “maximal enhancement of cAMP hydrolysis by cGMP” value is recorded as 20-30% in data set [1] (olfactory mucosa, 1 μM cGMP, 10 μM cAMP, 100 μM EGTA) and 20-30% in data set [5] (cilia, 1 μM cGMP, 10 μM cAMP, 100 μM EGTA). The “effect of cGMP on cAMP hydrolysis when Ca^2+ and calmodulin are added” value in data set [5] (cilia and olfactory mucosa, Ca^2+ and calmodulin added) is listed as “diminishes markedly”.

For `NCCCCCCNS(=O)(=O)c1cccc2c(Cl)cccc12` [W-7], the “reduction of stimulation by calmodulin” value in data set [5] (cilia, 100 μM W-7 (cAMP) or 200 μM W-7 (cGMP), 100 μM Ca^2+) is “substantially reduces stimulation by calmodulin”.

As for calmodulin, in data set [1] (mucosal homogenates, 1 μM cAMP or cGMP), the “effect of calmodulin on stimulation of enzyme activity by Ca^2+” value is on record as “further enhances the stimulation of enzyme activity by Ca^2+”. Besides, the EC50 in data set [2] (cilia, 1 μM cGMP, read-out: half maximal stimulation of PDE activity by calmodulin) turned out to be 10 nM; in data set [4] (cilia, 1 μM cAMP, read-out: half maximal stimulation of PDE activity by calmodulin), 10 nM.

Take `Cc1[nH]c(=O)c(C#N)cc1-c1ccncc1` [milrinone]: the “reduction of PDE activity” value in data set [1] (100 μM Ca^2+) was “about 15%”; in data set [1] (100 μM EGTA) it was “about 30%”. For the same molecule, the inhibition at 10 µM in data set [2] (read-out: inhibition of PDE in cilia) was < 10%. Moreover, in the data set on cGMP-inhibited PDE, the “selectivity for cGMP-inhibited PDE” value was “selective for cGMP-inhibited PDE”.

The record behind these values is patent US5525329A, “Inhibition of phosphodiesterase in olfactory mucosa” (priority 1995, dated 1996).
